Experiments:
Type in all cases: in vivo
[1] = tested on: harmful plants ABUTH, AMARE, ECHCG, LOLRI, MATIN, POAAN, SETVI, STEME, ALOMY, DIGSA, KCHSC and VERPE; experiment: Herbicidal post-emergence action, summary of Tables B1-B12; conditions: application rate of 1280 or 320 g of active ingredient per hectare; summary in words
Method in brief: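 Activity scored by eye roughly 3 weeks post-treatment against untreated plants, from 0% (no effect) to 100% (plants dead). Application rates were 1280 or 320 g/ha, as aqueous WP/EC spray plus 0.5% additive at 600 L/ha, onto one-leaf-stage weeds grown 2–3 weeks in sandy loam.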

Poa annua (POAAN) [2] = experiment: Herbicidal post-emergence action (Table B3); conditions: rated visually after about 3 weeks, 100% = plants have died, 0% = like control plants
Method in brief: (§1)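 Application rates of 1280 or 320 g/ha were tested post-emergence on one-leaf-stage greenhouse plants in sandy loam, using WP or EC formulations with 0.5% additive at 600 L/ha. Activity was rated visually against untreated plants about 3 weeks later.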

Poa annua (POAAN) [3] = experiment: Herbicidal pre-emergence action, test C (Table C3); conditions: visual scoring after about 3 weeks, 100% = plants have died, 0% = like control plants
Method in brief: (§2)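 First, weed seeds were sown in sandy loam and covered with soil. Next, aqueous WP/EC preparations plus 0.5% additive were applied to the surface at 600 L/ha (1280 or 320 g/ha). Finally, plants grew in a greenhouse ~3 weeks before visual % scoring against controls.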

[4] = tested on: Amaranthus retroflexus (AMARE); experiment: Herbicidal post-emergence action (Table B6); conditions: visual rating about 3 weeks after treatment, 100% = plants have died, 0% = like control plants
Method in brief: as §1

[5] = tested on: Echinochloa crus-galli (ECHCG); experiment: Herbicidal post-emergence action (Table B1); conditions: rated visually after about 3 weeks, 100% = plants have died, 0% = like control plants
Method in brief: as §1

[6] = tested on: Abutilon theophrasti (ABUTH); experiment: Herbicidal pre-emergence action, test C (Table C5); conditions: visual scoring after about 3 weeks, 100% = plants have died, 0% = like control plants
Method in brief: as §2

Stellaria media (STEME) [7] = experiment: Herbicidal post-emergence action (Table B8); conditions: visual rating about 3 weeks after treatment, 100% = plants have died, 0% = like control plants
Method in brief: as §1

Setaria viridis (SETVI) [8] = experiment: Herbicidal pre-emergence action, test C (Table C4); conditions: visual scoring after about 3 weeks, 100% = plants have died, 0% = like control plants
Method in brief: as §2

[9] = tested on: Abutilon theophrasti (ABUTH); experiment: Herbicidal post-emergence action (Table B5); conditions: rated visually after about 3 weeks, 100% = plants have died, 0% = like control plants
Method in brief: as §1

Stellaria media (STEME) [10] = experiment: Herbicidal pre-emergence action, test C (Table C8); conditions: visual scoring after about 3 weeks, 100% = plants have died, 0% = like control plants
Method in brief: as §2

[11] = tested on: Amaranthus retroflexus (AMARE); experiment: Herbicidal pre-emergence action, test C (Table C6); conditions: visual scoring after about 3 weeks, 100% = plants have died, 0% = like control plants
Method in brief: as §2

Lolium rigidum (LOLRI) [12] = experiment: Herbicidal pre-emergence action, test C (Table C2); conditions: visual scoring after about 3 weeks, 100% = plants have died, 0% = like control plants
Method in brief: as §2

Lolium rigidum (LOLRI) [13] = experiment: Herbicidal post-emergence action (Table B2); conditions: rated visually after about 3 weeks, 100% = plants have died, 0% = like control plants
Method in brief: as §1

Setaria viridis (SETVI) [14] = experiment: Herbicidal post-emergence action (Table B4); conditions: rated visually after about 3 weeks, 100% = plants have died, 0% = like control plants
Method in brief: as §1

[15] = tested on: Echinochloa crus-galli (ECHCG); experiment: Herbicidal pre-emergence action, test C (Table C1); conditions: visual scoring after about 3 weeks, 100% = plants have died, 0% = like control plants
Method in brief: as §2

[16] = tested on: harmful plants ABUTH, AMARE, ECHCG, LOLRI, MATIN, POAAN, SETVI, STEME, ALOMY, DIGSA, KCHSC and VERPE; experiment: Herbicidal pre-emergence action (test C), summary of Tables C1-C12; conditions: application rate of 1280 or 320 g of active ingredient per hectare; summary in words
Method in brief: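 Visual % damage versus untreated plants (0% = like control, 100% = died) was scored after about 3 weeks in the greenhouse. Before emergence, seeds sown in sandy loam got a soil-surface spray of compound as WP or EC plus 0.5% additive, using 600 L/ha water at rates of 1280 or 320 g/ha.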

Structure (SMILES)	herbicidal activity against the harmful plants of Tables B1-B12 in post-emergence treatment [1]	Post-emergence action against Poa annua (POAAN) (Poa annua (POAAN) [2]; 320 g/ha)	Post-emergence action against Poa annua (POAAN) (Poa annua (POAAN) [2]; 1280 g/ha)	Pre-emergence action against Poa annua (POAAN) (Poa annua (POAAN) [3]; dosage 320 g/ha)	Pre-emergence action against Poa annua (POAAN) (Poa annua (POAAN) [3]; dosage 1280 g/ha)	Post-emergence action against Amaranthus retroflexus (AMARE) ([4]; dosage 320 g/ha)	Post-emergence action against Amaranthus retroflexus (AMARE) ([4]; dosage 1280 g/ha)	Post-emergence action against Echinochloa crus-galli (ECHCG) ([5]; 320 g/ha)	Post-emergence action against Echinochloa crus-galli (ECHCG) ([5]; 1280 g/ha)	Pre-emergence action against Abutilon theophrasti (ABUTH) ([6]; dosage 1280 g/ha)	Post-emergence action against Stellaria media (STEME) (Stellaria media (STEME) [7]; dosage 320 g/ha)	Post-emergence action against Stellaria media (STEME) (Stellaria media (STEME) [7]; dosage 1280 g/ha)	Pre-emergence action against Setaria viridis (SETVI) (Setaria viridis (SETVI) [8]; dosage 320 g/ha)	Pre-emergence action against Setaria viridis (SETVI) (Setaria viridis (SETVI) [8]; dosage 1280 g/ha)	Post-emergence action against Abutilon theophrasti (ABUTH) ([9]; 320 g/ha)	Post-emergence action against Abutilon theophrasti (ABUTH) ([9]; 1280 g/ha)	Pre-emergence action against Stellaria media (STEME) (Stellaria media (STEME) [10]; dosage 320 g/ha)	Pre-emergence action against Stellaria media (STEME) (Stellaria media (STEME) [10]; dosage 1280 g/ha)	Pre-emergence action against Amaranthus retroflexus (AMARE) ([11]; dosage 320 g/ha)	Pre-emergence action against Amaranthus retroflexus (AMARE) ([11]; dosage 1280 g/ha)	other results
FC(F)c1cc(-c2ccccc2Oc2ccc(Cl)cn2)on1 [Example 1-35]	very good herbicidal activity	100%	100%	100%	100%	100%	100%	100%	100%	100%	100%	100%	100%	100%	100%	100%	100%	100%	100%	100%	Pre-emergence action against Abutilon theophrasti (ABUTH) ([6]; dosage 320 g/ha): 100%; Pre-emergence action against Lolium rigidum (LOLRI) (Lolium rigidum (LOLRI) [12]; dosage 1280 g/ha): 90%; Post-emergence action against Lolium rigidum (LOLRI) (Lolium rigidum (LOLRI) [13]; 1280 g/ha): 100%; Post-emergence action against Setaria viridis (SETVI) (Setaria viridis (SETVI) [14]; 1280 g/ha): 100%; Pre-emergence action against Echinochloa crus-galli (ECHCG) ([15]; dosage 1280 g/ha): 100%; herbicidal activity against the harmful plants of Tables C1-C12 in pre-emergence treatment [16]: very good herbicidal activity
Fc1cc(Cl)cnc1Oc1ccccc1-c1cc(C(F)F)no1 [Example 1-36]	very good herbicidal activity	100%	100%	100%	100%	100%	100%	100%	100%	100%	100%	100%	100%	100%	100%	100%	100%	100%	100%	100%	Pre-emergence action against Lolium rigidum (LOLRI) (Lolium rigidum (LOLRI) [12]; dosage 1280 g/ha): 90%; Post-emergence action against Lolium rigidum (LOLRI) (Lolium rigidum (LOLRI) [13]; 1280 g/ha): 100%; Post-emergence action against Setaria viridis (SETVI) (Setaria viridis (SETVI) [14]; 1280 g/ha): 100%; Pre-emergence action against Echinochloa crus-galli (ECHCG) ([15]; dosage 1280 g/ha): 100%; herbicidal activity against the harmful plants of Tables C1-C12 in pre-emergence treatment [16]: very good herbicidal activity
Fc1cccc(Oc2ccc(Br)cn2)c1-c1cc(C(F)F)no1 [Example 1-40]	very good herbicidal activity	100%	100%	100%	100%	100%	100%	100%	100%	100%	100%	100%	100%	100%	100%	100%	100%	100%	100%	100%	Pre-emergence action against Abutilon theophrasti (ABUTH) ([6]; dosage 320 g/ha): 100%; Pre-emergence action against Lolium rigidum (LOLRI) (Lolium rigidum (LOLRI) [12]; dosage 320 g/ha): 90%; Pre-emergence action against Lolium rigidum (LOLRI) (Lolium rigidum (LOLRI) [12]; dosage 1280 g/ha): 100%; Post-emergence action against Lolium rigidum (LOLRI) (Lolium rigidum (LOLRI) [13]; 320 g/ha): 100%; Post-emergence action against Lolium rigidum (LOLRI) (Lolium rigidum (LOLRI) [13]; 1280 g/ha): 100%; Post-emergence action against Setaria viridis (SETVI) (Setaria viridis (SETVI) [14]; 320 g/ha): 100%; Post-emergence action against Setaria viridis (SETVI) (Setaria viridis (SETVI) [14]; 1280 g/ha): 100%; Pre-emergence action against Echinochloa crus-galli (ECHCG) ([15]; dosage 320 g/ha): 100%; Pre-emergence action against Echinochloa crus-galli (ECHCG) ([15]; dosage 1280 g/ha): 100%; herbicidal activity against the harmful plants of Tables C1-C12 in pre-emergence treatment [16]: very good herbicidal activity
